# System: agonistic autoantibodies against the β2 adrenergic receptor (immunoglobulin fraction of POAG patients)
# Test: Neutralization of agonistic autoantibodies by synthetic peptides, beating rate of spontaneously beating neonatal rat cardiomyocytes
# Assay type: cell-based
# Settings: for blocking of the stimulating effect of the antibodies by extracellular loop peptides: immunoglobulins from 6 POAG patients preexposed to peptides of the first, second and third extracellular β2 receptor loops, 0.5 μg peptide in 50 μl; for recognition of epitopes by the antibodies: 5 overlapping peptides of loop II of the β2 adrenergic receptor, FIG. 6; for effect on the antibody-induced increase in the spontaneous beating rate: immunoglobulins of 5 patients with POAG preincubated with short, overlapping peptides of the second extracellular loop of the β2 receptor, neonatal rat cardiomyocytes
# Protocol: Preparation of the immunoglobulin fraction. The immunoglobulin fraction was isolated from 1- to 2-ml serum samples by ammonium sulfate precipitation at a saturation of 40%. The precipitates were washed and dissolved in dialysis buffer (154 mmol/l NaCl, 10 mmol/l sodium phosphate; pH 7.2). The procedure of precipitating, washing, and dissolving was repeated twice.
# Finally, the immunoglobulins were taken up in 1 ml PBS (pH 7.2) and dialyzed at 4° C. for 30 hours against 1 l of dialysis buffer. The buffer was changed five times during dialysis. For detection of autoantibodies, the immunoglobulin fractions were added at a dilution of 1:20 or 1:40 to the flasks.
# After the dialysis, the IgG fractions feature a concentration of 10-15 mg/ml, a maximum of 10 μg/ml of which are specific receptor antibodies. 50 μl of this IgG solution are pre-incubated with the peptides with the following concentration of peptides: 5 μl of a buffered solution of 100 μg/ml per 50 μl IgG solution. This mixture is pre-incubated at room temperature for 30 minutes and subsequently filled into the cell culture vials, after the former nutrient solution has been removed by pipet. The amount of the medium is 2 ml. The final concentration therefore is of […] for the IgG and 0.5 μg for the peptides. If the molecular weight of the peptide (10 mer) is set with 1 KD and that of the IgG is set with 150 KD, there is an […].
# For the neutralization experiments, synthetic peptides corresponding to the sequence of the three extracellular loops of the human β2 adrenegic receptor was added in excess (0.5 μg in 50 μl) to 50 μl of the immunoglobulin fraction. The mixtures were shaken and incubated at room temperature for 1 h. The 100-μl samples were then added to neonatal rat heart muscle cells cultured in 2 ml medium to a final dilution of 1:40. The beating rate was counted for 15 s, 60 min after the addition of the peptide/immunoglobulin mixture.
# For identifying the autoantibody neutralizing epitopes synthetic overlapping peptides corresponding to the sequence of the second extracellular loop of the human β2 adrenoceptor was added to the immunoglobulins. After 1 h incubation at room temperature the samples were used as described above.
Substance,blocking of the stimulating effect of the antibodies by extracellular loop peptides,blocking of the stimulating effect of the antibodies by extracellular loop peptides (listed as peptides from the second extracellular loop),recognition of epitopes by the antibodies,effect on the antibody-induced increase in the spontaneous beating rate
loop II peptide: synthetic peptide corresponding to the sequence of the second extracellular loop of the human β2 adrenergic receptor (HWYRATHQEAINCYANETCCDFFTNQ),blocks the antibody activity to stimulate the rat cardiomyocytes,blocked the effect,,
AINCYAN [Ala-Ile-Asn-Cys-Tyr-Ala-Asn],,,Antibodies recognize the epitopes,abolished the increase in the spontaneous beating rate in all 5 patients tested
ANETCCD [Ala-Asn-Glu-Thr-Cys-Cys-Asp],,,Antibodies recognize the epitopes,abolished the increase in the spontaneous beating rate in all 5 patients tested

# From US20090220469A1, “PEPTIDES AGAINST AUTOANTIBODIES ASSOCIATED WITH GLAUCOMA AND USE OF THESE PEPTIDES” (MAX-DELBRUECK-CENTRUM FUER MOLEKULARE MEDIZIN, priority 2006, published 2009)
